Results published in article PMC11851449, “Blm10-Based Compounds Add to the Knowledge of How Allosteric Modulators Influence Human 20S Proteasome” (ACS Chemical Biology, 2025).

Tests used:
[1] = tested on: T1, human 20S proteasome; assay: C-L peptidase activity of latent h20S probed with Z-LLE-AMC; format: biochemical; settings: 10 μM bortezomib
T1 construct: 20S proteasome was isolated from human erythrocytes; from tissue; host or cells: human erythrocytes
Protocol: (§1) The capacity of influencing the human 20S proteasome was examined using the latent enzyme isolated from human erythrocytes. Boc-LRR-AMC, Z-LLE-AMC, and Suc-LLVY-AMC fluorogenic substrates (Enzo Life Sciences Inc.) were used for assessment of the trypsin-, caspase-, and chymotrypsin-like activities, respectively. As an additional probe, we utilized a homemade FRET-type substrate DabEDS (Lys(Dabcyl)-[…]EDANS)-Gly[36]). Stock solutions of the substrates and modulators were prepared in dimethyl sulfoxide (DMSO). […] The activity assays were performed in a 96-well plate format in 50 mM Tris/HCl, pH 8.0. The CP was used at a final concentration of 0.002 mg mL^–1 (2.8 nM). The final concentrations of LLVY, LRR, and LLE substrates were 100 μM and DabEDS 15 μM. The concentration of reagents in the tests with inhibitors was as follows: 10 μM bortezomib (tebu-bio), 50 μM leupeptin (Roth), and 10 μM activators. The release of the aminomethylcoumarin (AMC) reporter group was followed by monitoring the fluorescence emission at 460 nm (λex was 380 nm). DabEDS hydrolysis was detected by measuring the emission at 493 nm, while the excitation wavelength was set at 335 nm. Fluorescence measurements were carried out using an Infinite M200 Pro plate reader (Tecan), every 2 min for up to 60 min at 37 °C. All activity assays were performed in at least three independent replicates.

[2] = tested on: T1, human 20S proteasome; assay: ChT-L peptidase activity of latent h20S probed with Suc-LLVY-AMC; format: biochemical; settings: 10 μM bortezomib, Suc-LLVY-AMC 100 μM; activators could not overcome the inhibition
Protocol: as §1

Question: Which results are given for `CC(C)C[C@H](NC(=O)[C@H](Cc1ccccc1)NC(=O)c1cnccn1)B(O)O` [bortezomib]?
Answer: inhibition of h20S C-L activity (in words) [1]: completely blocked the activity of the ChT-L and C-L; inhibition of h20S ChT-L activity (in words) [2]: complete loss of proteasome activity
